≈ marks a conversion by molar mass, not a printed value.
Columns and labels:
APEC O35 = assay: MIC and MBC determination in M63 media; type: cell-based; conditions: Escherichia coli
APEC O109 = assay: MIC and MBC determination in M63 media; type: cell-based; conditions: Escherichia coli
APEC O1-63 = assay: MIC and MBC determination in M63 media; type: cell-based; conditions: Escherichia coli; APEC O1-63, M63 media
[1] = test system: biofilm embedded APEC O78; assay: MBEC High-throughput (HTP) assay; type: cell-based, Escherichia coli
Protocol: The effect of cidal SMs against biofilm embedded APEC was determined using MBEC High-throughput (HTP) assay (Innovotech Inc., AB, Canada)[22]. Briefly, 150 μL of 0.05 OD600 adjusted APEC O78 culture was aliquoted into each well of the MBEC device containing polystyrene pegs and incubated at 37 °C for 36 h in LB media under stationary condition. […] The plate was incubated in the dark for 18 h at 37 °C with rotation at 110 rpm. The DMSO (1%) and […] media were used as positive and negative controls, respectively. Following incubation, MIC of SMs in challenged plate was recorded. The SMs exposed pegs were then transferred to a new 96-well plate containing PBS and sonicated for 30 mins (Aquasonic ultrasonic cleaner, VWR) to disrupt the biofilm. The sonicated suspensions were ten-fold serially diluted and plated on LB agar plate. Biofilm embedded APEC bacteria were enumerated and minimum biofilm eradication concentration (MBEC) of SMs were determined as described previously. Two independent experiments were conducted.

APEC O78 [2] = assay: Bacterial cytological profiling by confocal microscopy; type: cell-based, Escherichia coli; conditions: 2X MBC, 2 h
Protocol: Confocal microscopy was used for bacterial cytological profiling (BCP) to identify the cellular pathways targeted by SMs as described previously. […] After incubation, treated cultures were centrifuged, washed, and resuspended in 100 µL PBS. FM4-64 (#T13320 Molecular Probes/Invitrogen) (1 µg/mL) and SYTO-9 (#S34854 Molecular Probes/Invitrogen) (5 µM) were added to the bacterial cultures and incubated for 45 mins at room temperature with shaking at 150 rpm. Cultures were then centrifuged, washed, and resuspended in PBS to 1/10th volume of the original cultures.

APEC O78 [3] = assay: Crystal violet (CV) uptake assay; type: cell-based, Escherichia coli; conditions: 2X MBC, 30 mins; P < 0.05, Student's t-test
Protocol: Membrane permeability assays (crystal violet (CV) uptake and loss of 260/280 nm absorbing materials) were conducted as described previously. […] CV uptake was measured using the formula: (OD DMSO − OD SM/OD DMSO × 100). Two independent experiments in duplicates were conducted.

[4] = test system: intracellular APEC O1 in Caco-2 cells; assay: Intracellular survival assay; type: cell-based, Escherichia coli; conditions: for minimal effective concentration: Escherichia coli, O1, Caco-2, 6 h treatment, read-out: SMs intracellular APEC clearance concentration; for intracellular APEC clearance concentration as multiple of MIC (superscript): O1, Caco-2; for concentration at which the SM significantly (P < 0.01) reduced intracellular APEC (superscript of t-statistic): O1, Caco-2, 6 h
Protocol: (§1) Intracellular survival assay was conducted as described previously[28],[29] to determine the effect of cidal SMs on APEC survival in phagocytic (HD11, THP-1) and non-phagocytic (Caco-2) cells. Briefly, mid-logarithmic phase grown APEC O78, O1, and O2 were washed and adjusted to 1 × 10^7 CFU/mL in cell culture incomplete media (no FBS and antibiotics). One-hundred microlitres adjusted APEC suspension was added at multiplicity of infection (MOI) 10 to wells of 96-well cell culture plate containing cultured macrophage (HD11, THP-1) and epithelial cells (Caco-2) and incubated for 1 h and 3 h, respectively. […] The cells were then lysed with 100 µL of 0.1% Triton X-100 for 5 mins, serially diluted, and plated on LB agar plate to enumerate viable bacteria. The intracellular bacteria in SMs treated wells were compared with DMSO (1%) treated wells. Two independent experiments in duplicate wells for each concentration of SMs were conducted.

[5] = test system: intracellular APEC O1 in HD11 cells; assay: Intracellular survival assay; type: cell-based, Escherichia coli; conditions: for minimal effective concentration: Escherichia coli, O1, HD11, 6 h treatment, read-out: SMs intracellular APEC clearance concentration; for concentration at which the SM significantly (P < 0.01) reduced intracellular APEC (superscript of t-statistic): O1, HD11, 6 h
Protocol: as §1

[6] = test system: intracellular APEC O1 in THP-1 cells; assay: Intracellular survival assay; type: cell-based, Escherichia coli; conditions: for minimal effective concentration: Escherichia coli, O1, THP-1, 6 h treatment, read-out: SMs intracellular APEC clearance concentration; for concentration at which the SM significantly (P < 0.01) reduced intracellular APEC (superscript of t-statistic): O1, THP-1, 6 h
Protocol: as §1

[7] = test system: intracellular APEC O2 in Caco-2 cells; assay: Intracellular survival assay; type: cell-based, Escherichia coli; conditions: for minimal effective concentration: Escherichia coli, O2, Caco-2, 6 h treatment, read-out: SMs intracellular APEC clearance concentration; for intracellular APEC clearance concentration as multiple of MIC (superscript): O2, Caco-2; for concentration at which the SM significantly (P < 0.01) reduced intracellular APEC (superscript of t-statistic): O2, Caco-2, 6 h
Protocol: as §1

[8] = test system: intracellular APEC O2 in HD11 cells; assay: Intracellular survival assay; type: cell-based, Escherichia coli; conditions: for minimal effective concentration: Escherichia coli, O2, HD11, 6 h treatment, read-out: SMs intracellular APEC clearance concentration; for intracellular APEC clearance concentration as multiple of MIC (superscript): O2, HD11; for concentration at which the SM significantly (P < 0.01) reduced intracellular APEC (superscript of t-statistic): O2, HD11, 6 h
Protocol: as §1

[9] = test system: intracellular APEC O2 in THP-1 cells; assay: Intracellular survival assay; type: cell-based, Escherichia coli; conditions: for minimal effective concentration: Escherichia coli, O2, THP-1, 6 h treatment, read-out: SMs intracellular APEC clearance concentration; for concentration at which the SM significantly (P < 0.01) reduced intracellular APEC (superscript of t-statistic): O2, THP-1, 6 h
Protocol: as §1

[10] = test system: intracellular APEC O78 in Caco-2 cells; assay: Intracellular survival assay; type: cell-based, Escherichia coli; conditions: for minimal effective concentration: Escherichia coli, O78, Caco-2, 6 h treatment, read-out: SMs intracellular APEC clearance concentration; for intracellular APEC clearance concentration as multiple of MIC (superscript): O78, Caco-2; for concentration at which the SM significantly (P < 0.01) reduced intracellular APEC (superscript of t-statistic): O78, Caco-2, 6 h
Protocol: as §1

[11] = test system: intracellular APEC O78 in HD11 cells; assay: Intracellular survival assay; type: cell-based, Escherichia coli; conditions: for minimal effective concentration: Escherichia coli, O78, HD11, 6 h treatment, read-out: SMs intracellular APEC clearance concentration; for intracellular APEC clearance concentration as multiple of MIC (superscript): O78, HD11; for concentration at which the SM significantly (P < 0.01) reduced intracellular APEC (superscript of t-statistic): O78, HD11, 6 h
Protocol: as §1

[12] = test system: intracellular APEC O78 in THP-1 cells; assay: Intracellular survival assay; type: cell-based, Escherichia coli; conditions: for minimal effective concentration: Escherichia coli, O78, THP-1, 6 h treatment, read-out: SMs intracellular APEC clearance concentration; for intracellular APEC clearance concentration as multiple of MIC (superscript): O78, THP-1; for concentration at which the SM significantly (P < 0.01) reduced intracellular APEC (superscript of t-statistic): O78, THP-1, 6 h
Protocol: as §1

[13] = test system: intracellular APEC O78, O2, and O1 in infected Caco-2, HD11, and THP1 cells; assay: Intracellular survival assay, statements over all serotypes and cells; type: cell-based, Escherichia coli; conditions: for minimal effective concentration: Escherichia coli, 6 h, O78, O2 and O1, Caco-2, HD11, THP-1, read-out: concentration clearing intracellular APEC; for ranking in clearing intracellular APEC: all tested serotypes and cells
Protocol: as §1

SMILES	MBC (APEC O35) [µM]	MIC (APEC O35) [µM]	MBC (APEC O109) [µM]	MIC (APEC O109) [µM]	MBC (APEC O1-63) [µM]	MIC (APEC O1-63) [µM]	cytological profile (FM4-64 / SYTO-9 staining) (APEC O78 [2])	uptake of crystal violet compared with DMSO (APEC O78 [3])	minimal effective concentration [4] [µM]	intracellular APEC clearance concentration as multiple of MIC (superscript) [4]	concentration at which the SM significantly (P < 0.01) reduced intracellular APEC (superscript of t-statistic) [4]	minimal effective concentration [5] [µM]	concentration at which the SM significantly (P < 0.01) reduced intracellular APEC (superscript of t-statistic) [5]	minimal effective concentration [6] [µM]	concentration at which the SM significantly (P < 0.01) reduced intracellular APEC (superscript of t-statistic) [6]	minimal effective concentration [7] [µM]	intracellular APEC clearance concentration as multiple of MIC (superscript) [7]	concentration at which the SM significantly (P < 0.01) reduced intracellular APEC (superscript of t-statistic) [7]	minimal effective concentration [8] [µM]	intracellular APEC clearance concentration as multiple of MIC (superscript) [8]	other results
CCN1/C(=C/c2ccc3ccccc3[n+]2CC)C=Cc2ccccc21 [SM9]	50	25	50	25	100	50	filamentous or short rods (spheroplasts) morphology (PG synthesis inhibitors)	increased the uptake of crystal violet	100	c (4X MIC)	c (2XMIC)	100	b (1X MIC)	50	b (1X MIC)	100	c (4X MIC)	c (2XMIC)	100	c (4X MIC)	MBEC as multiple of MIC (superscript) ([1]; 18 h challenge in M63 media): b (1X MIC); intracellular APEC clearance concentration as multiple of MIC (superscript) ([6]; O1, THP-1): b (2X MIC); concentration at which the SM significantly (P < 0.01) reduced intracellular APEC (superscript of t-statistic) [8]: c (2XMIC); minimal effective concentration [9]: 50 µM; concentration at which the SM significantly (P < 0.01) reduced intracellular APEC (superscript of t-statistic) [9]: b (1X MIC); minimal effective concentration [10]: 50 µM; intracellular APEC clearance concentration as multiple of MIC (superscript) [10]: b (2X MIC); concentration at which the SM significantly (P < 0.01) reduced intracellular APEC (superscript of t-statistic) [10]: b (1X MIC); minimal effective concentration [11]: 100 µM; intracellular APEC clearance concentration as multiple of MIC (superscript) [11]: c (4X MIC); concentration at which the SM significantly (P < 0.01) reduced intracellular APEC (superscript of t-statistic) [11]: c (2XMIC); minimal effective concentration [12]: 50 µM; intracellular APEC clearance concentration as multiple of MIC (superscript) [12]: b (2X MIC); concentration at which the SM significantly (P < 0.01) reduced intracellular APEC (superscript of t-statistic) [12]: b (1X MIC); minimal effective concentration [13]: ≤ 100 µM; ranking in clearing intracellular APEC [13]: most effective SMs in clearing intracellular APEC serotypes in all tested cells
CC(=O)OC(C(Br)C(=O)c1ccc([N+](=O)[O-])cc1)C(Cl)(Cl)Cl (stereo not drawn) [SM10]	50 (≈ 21.7 µg/mL)	25 (≈ 10.8 µg/mL)	50 (≈ 21.7 µg/mL)	25 (≈ 10.8 µg/mL)	100 (≈ 43.3 µg/mL)	50 (≈ 21.7 µg/mL)	filamentous or short rods (spheroplasts) morphology (PG synthesis inhibitors)	increased the uptake of crystal violet	100	c (4X MIC)	b (1X MIC)	> 100	b (1X MIC)	> 100	b (1X MIC)	100	c (4X MIC)	b (1X MIC)	100	c (4X MIC)	concentration that significantly (P < 0.01) reduced biofilm embedded APEC ([1]; no eradication): 1 X MIC; MBEC as multiple of MIC ([1]; tested 0.5X to 8X MIC): > 8 X MIC; concentration at which the SM significantly (P < 0.01) reduced intracellular APEC (superscript of t-statistic) [8]: b (1X MIC); minimal effective concentration [9]: 50 µM; concentration at which the SM significantly (P < 0.01) reduced intracellular APEC (superscript of t-statistic) [9]: b (1X MIC); minimal effective concentration [10]: 100 µM; intracellular APEC clearance concentration as multiple of MIC (superscript) [10]: c (4X MIC); concentration at which the SM significantly (P < 0.01) reduced intracellular APEC (superscript of t-statistic) [10]: b (1X MIC); minimal effective concentration [11]: 50 µM; intracellular APEC clearance concentration as multiple of MIC (superscript) [11]: b (2X MIC); concentration at which the SM significantly (P < 0.01) reduced intracellular APEC (superscript of t-statistic) [11]: c (2XMIC); minimal effective concentration [12]: 100 µM; intracellular APEC clearance concentration as multiple of MIC (superscript) [12]: c (4X MIC); concentration at which the SM significantly (P < 0.01) reduced intracellular APEC (superscript of t-statistic) [12]: b (1X MIC); minimal effective concentration [13]: ≤ 100 µM; ranking in clearing intracellular APEC [13]: most effective SMs in clearing intracellular APEC serotypes in all tested cells

From article PMC6193035, “Novel small molecules affecting cell membrane as potential therapeutics for avian pathogenic Escherichia coli” (Scientific Reports, 2018)
